{
  "source": "patent US20160058829A1",
  "about": "“ANTI-FIBROTIC PEPTIDES AND THEIR USE IN METHODS FOR TREATING DISEASES AND DISORDERS CHARACTERIZED BY FIBROSIS” (Thrasos Innovation, Inc., priority 2011, published 2016)",
  "molecules": {"B1": {"name": "BMP-7: bone morphogenetic protein-7; recombinant human BMP7, positive control (protein)", "chain": "STGSKQRSQNRSKTPKNQEALRMANVAENSSSDQRQACKKHELYVSFRDLGWQDWIIAPEGYAAYYCEGECAFPLNSYMNATNHAIVQTLVHFINPETVPKPCCAPTQLNAISVLYFDDSSNVILKKYRNMVVRACGCH"}},
  "key": {"[1]": {"system": "Streptozotocin-induced diabetic CD-1 mice", "experiment": "STZ-induced diabetic nephropathy study (THR-123 month 5-6, BMP-7 month 1-6)", "type": "in vivo", "conditions": "for net increase in FSP1 (mesenchymal tissue) at six months versus normal animals: BMP7 five months, SEQ ID NO: 1 final month, untreated 27 and 29 times; for interstitial fibrosis (collagen accumulation, Masson's trichrome): THR-123 5 mg/kg/day oral; for increase in BUN level relative to normal animals: untreated 85% at 5 months, 94% at 6 months", "description": "FIG. 17 depicts the STZ experimental protocol behind the study discussed in Example 2. […] Mice were given a single intraperitoneal injection of Streptozotocin (STZ) in sodium citrate buffer (pH 4.5) at a dose of 200 mg/kg. Blood glucose was measured by tail vein sampling using the glucose oxidase enzymatic test (Medisense glucometer, Abbott Laboratories, Bedford, Mass.). Diabetic nephropathy was evaluated in groups of mice killed at the end of 5 or 6 months (vehicle control groups) or 6 months (THR123 or BMP-7 group) after STZ injection. A group of STZ injected mice received oral administration of Thrasos compound daily at a dose of 5 mg/kg body weight for a month, from month 5 to month 6 after STZ injection. BMP-7 was administered intraperitoneally at a dose of 300 μg/kg body weight from month 1 to month 6.\nAnalysis of fibrosis in the H&E and Masson's trichrome stain in FIG. 18 through 22 from the mouse STZ study outlined in FIG. 17. Using the same image color analysis method used above to quantitate E-cadherin fluorescence for the in vitro EMT experiments, the images were quantitated, and the results shown in FIG. 23.\nEight weeks old male CD-1 mice are used all the diabetic experiment. Mice are performed single intraperitoneal (i.p.) injection of streptozotocin (STZ: 200 mg/Kg). Induction of diabetes is defined as blood glucose level >16 mM by 2 weeks after STZ injection. One month after induction of diabetes, mice were separated into three groups (BMP7, vehicle and non-treatment) and BMP7 (i.p. 300 μg/Kg/every other day) or vehicle injection was initiated. Five months after induction of diabetes, THR-123 (p.o. 5 mg/Kg/day) administration is initiated in diabetic mice. Mice are sacrificed at 5 (before the treatment) or 6 months after induction of diabetes."}, "Alk-3": {"molecular_target": "T1, Alk-3 (Homo sapiens, UniProt P36894)", "T1 construct": "Highly purified extra-cellular domain (ECD) of Alk-3 or Alk-6 (expressed as a fusion protein with Fc domain) served as a receptor", "T1 sequence (P36894 24-152 limits assumed, species assumed)": "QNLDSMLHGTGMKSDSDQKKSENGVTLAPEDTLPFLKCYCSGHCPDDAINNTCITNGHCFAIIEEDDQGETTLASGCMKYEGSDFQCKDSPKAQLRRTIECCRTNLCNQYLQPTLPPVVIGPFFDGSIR", "experiment": "Radio-ligand (125I-BMP7) receptor binding assay, Alk-3 ECD", "from_the_text": "FIG. 45A-FIG. 45G Pharmacokinetics of THR-123. FIG. 45A. BMP7 structure figure with the residue weights resulting from the analysis mapped on to it. FIG. 45B, FIG. 45C. Radio-ligand receptor binding assays specific for individual type I receptors, Alk-3 (FIG. 45B) and Alk-6 (FIG. 45C). Highly purified extra-cellular domain (ECD) of Alk-3 or Alk-6 (expressed as a fusion protein with Fc domain) served as a receptor. In each assay purified receptor was immobilized on each well and peptide analog or unlabeled BMP7 was added, followed by ^125I-labeled BMP7. Radiolabeled BMP7 complex was counted in an auto-gamma counter. Results were expressed as the mean±s.e.m. […] Concentration of THR-123 in systemic circulation of Wistar rats following iv injection of THR-123 (^125I-Tyr) via the tail vein determined by total radioactivity measurement. […] Six hours after intravenous administration of ^125I labeled-THR-123 in rats at a dose of 6.25 mg/kg-body weight, tissues were harvested and analyzed by automatic gamma well counter. […] Radioactivity of orally administrated ^125I labeled-THR-123 at a dose of 5 mg/kg body weight was localized in the kidney between 1 and 6 hours after administration and peaked at around 3 hours.\nFirst, specific affinity of the extra cellular domains (ECD) of the several type I receptors of BMPs to THR-123 was analyzed. […]"}, "[2]": {"conditions": "THR-123 month 5-6, BMP-7 month 1-6"}, "[3]": {"conditions": "THR-123 month 5-6, BMP-7 month 1-6, listed as THR-123"}},
  "note": "“Also recorded” adds a separate entry of the source. Like-named read-outs stand apart in the source and are kept apart here. Positions of bridges follow the written chain, without caps; N, C: chain ends.",
  "data": [
    {"molecule": "(H)-CYFDDSSNVLCKKYRS-(OH) (H-CYFDDSSNVLCKKYRS-OH; disulfide 1-11; SMILES CC(C)C[C@@H]1NC(=O)[C@H](C(C)C)NC(=O)[C@H](CC(N)=O)NC(=O)[C@H](CO)NC(=O)[C@H](CO)NC(=O)[C@H](CC(=O)O)NC(=O)[C@H](CC(=O)O)NC(=O)[C@H](Cc2ccccc2)NC(=O)[C@H](Cc2ccc(O)cc2)NC(=O)[C@@H](N)CSSC[C@@H](C(=O)N[C@@H](CCCCN)C(=O)N[C@@H](CCCCN)C(=O)N[C@@H](Cc2ccc(O)cc2)C(=O)N[C@@H](CCCNC(=N)N)C(=O)N[C@@H](CO)C(=O)O)NC1=O) [SEQ ID NO: 1]", "values": [
      {"measurement": "net increase in FSP1 (mesenchymal tissue) at six months versus normal animals", "setting": "[1]", "value": 2, "unit": "times"},
      {"measurement": "interstitial fibrosis (collagen accumulation, Masson's trichrome)", "setting": "[1]; month 5 to 6, listed as THR123, 5 mg/kg/day", "value": "reduced renal fibrosis"},
      {"measurement": "interstitial fibrosis (collagen accumulation, Masson's trichrome)", "setting": "[1]; month 5 to 6, listed as THR-123, 5 mg/kg/day", "value": "lower than it was at 5 months; also recorded: markedly reduced"},
      {"measurement": "glomerular surface area", "setting": "[1]; [2]", "value": "little effect"},
      {"measurement": "relative interstitial volume", "setting": "[1]; THR-123 month 5-6, BMP-7 month 1-6, listed as THR123", "value": "decreased interstitial volume"},
      {"measurement": "BUN levels / renal function", "setting": "[1]; [3]", "value": "reversed renal dysfunction; also recorded: dropped to those of control animals"},
      {"measurement": "damaged tubules / tubular atrophy", "setting": "[1]; [3]", "value": "inhibited tubular atrophy and interstitial volume increase; also recorded: reversed tubular atrophy and interstitial volume expansion; also recorded: markedly reduced"},
      {"measurement": "mesangial matrix expansion", "setting": "[1]; [3]", "value": "inhibited mesangium expansion; also recorded: reversed mesangial matrix expansion; also recorded: significantly reduced"},
      {"measurement": "relative interstitial volume", "setting": "[1]; [3]", "value": "markedly reduced"},
      {"measurement": "EMT program (FSP1 and E-cadherin double positive tubules)", "setting": "[1]; mouse, in vivo", "value": "inhibited EMT program"},
      {"measurement": "macrophage infiltration (Mac-1)", "setting": "[1]; mouse, in vivo", "value": "significantly reduced the infiltration by macrophages"},
      {"measurement": "phospho-Smad1/5 accumulation in kidney", "setting": "[1]; mouse, in vivo", "value": "increased accumulation of phospho-Smad1/5"},
      {"measurement": "FSP-1 marker concentration relative to levels at 5 and 6 months", "setting": "[1]; one month treatment, month 5 to 6", "value": "less than 1/10"},
      {"measurement": "increase in mesangial matrix at 6 months", "setting": "[1]; untreated 64% at 5 months, 104% at 6 months", "value": 37, "unit": "%"},
      {"measurement": "increase in BUN level relative to normal animals", "setting": "[1]", "value": 17, "unit": "%"},
      {"measurement": "increase in BUN level relative to normal animals", "setting": "[1]; listed as THR-123", "value": 12, "unit": "%"},
      {"measurement": "binding to ALK3 (competition with 125I-BMP7)", "setting": "Alk-3; listed as THR-123", "value": "competes with BMP7; also recorded: binds"}
    ]},
    {"molecule": "B1", "values": [
      {"measurement": "net increase in FSP1 (mesenchymal tissue) at six months versus normal animals", "setting": "[1]", "value": 3, "unit": "times"},
      {"measurement": "BUN levels / renal function", "setting": "[1]; [2]", "value": "reversed renal dysfunction; also recorded: dropped to those of control animals"},
      {"measurement": "damaged tubules / tubular atrophy", "setting": "[1]; [2]", "value": "inhibited tubular atrophy and interstitial volume increase"},
      {"measurement": "mesangial matrix expansion", "setting": "[1]; [2]", "value": "inhibited mesangium expansion; also recorded: significantly reduced"},
      {"measurement": "relative interstitial volume", "setting": "[1]; [2]", "value": "markedly reduced"},
      {"measurement": "damaged tubules / tubular atrophy", "setting": "[1]; THR-123 month 5-6, BMP-7 month 1-6, listed as BMP", "value": "halts the progression"},
      {"measurement": "mesangial matrix expansion", "setting": "[1]; THR-123 month 5-6, BMP-7 month 1-6, listed as BMP7", "value": "unaffected"},
      {"measurement": "EMT program (FSP1 and E-cadherin double positive tubules)", "setting": "[1]; mouse, in vivo", "value": "inhibited EMT program"},
      {"measurement": "macrophage infiltration (Mac-1)", "setting": "[1]; mouse, in vivo", "value": "significantly reduced the infiltration by macrophages"},
      {"measurement": "increase in BUN level relative to normal animals", "setting": "[1]", "value": 2, "unit": "%"},
      {"measurement": "binding to ALK3 (competition with 125I-BMP7)", "setting": "Alk-3", "value": "binds"}
    ]}
  ]
}
